Laboratory results reported in the supplement of paper PMC11061612.

Key:
Experiment in all cases: Bliss excess, mean over the matrix (fraction); higher = more synergy
[1] = tested on: EFO-21 (Ovarian Carcinoma)
Summary of the method: (§1)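 Cell lines in DMEM/F12 or RPMI with 10% FBS were plated in 1536-well plates, held 24 hours at 37°C, 5% CO2, then given two-drug dose matrices for 72 hours (DMSO typically 0.2%). Viability was read by CellTiter-Glo 2.0 luminescence and scaled as inhibition from 0 (vehicle wells) to 1 (blank wells). Combination Emax is the second-highest inhibition in the matrix; Bliss excess is observed combination effect minus expected EA + EB − EA·EB, EA and EB being single-agent effects.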

[2] = tested on: EJM (Plasma Cell Myeloma)
Summary of the method: as §1

[3] = tested on: HAL-01 (B-Lymphoblastic Leukemia)
Summary of the method: as §1

[4] = tested on: MDA-MB-453 (Breast Carcinoma)
Summary of the method: as §1

| SMILES | Bliss excess [1] | Bliss excess [2] | Bliss excess [3] | Bliss excess [4] |
| --- | --- | --- | --- | --- |
| Cc1c2c(nn1C)CSCc1cc(n(C)n1)CSc1cc(c3ccccc3c1)OCCCc1c(C(=O)O)n(C)c3c-2c(Cl)ccc13 [AZD5991] + CN(C)CCCOc1ccc(-c2ccc3ncc4c(c3c2)n(C2CCOCC2)c(=O)n4C)cn1 [AZD0156] (first compound max 1 µM, 7x7, partner max 1 µM) | -0.0062 | 0.0241 | -0.0246 | -0.0091 |
| COc1cccc2c1C(=O)c1c(O)c3c(c(O)c1C2=O)C[C@@](O)(C(=O)CO)C[C@@H]3O[C@H]1C[C@H](N)[C@H](O)[C@H](C)O1 [Doxorubicin] + Cc1cc2ncnn2cc1Nc1ncc2c(n1)n(C1CCOCC1)c(=O)n2C [AZD7648] (first compound max 1 µM, 7x7, partner max 10 µM) | -0.03 | 0.0833 | 0.0877 | 0.0432 |
